Experimental findings from patent US8835447B2, “Method for treating androgen receptor positive cancers” (priority 2009, dated 2014) are described below.

One data set deals with C4-2 and CWR22R cells. In words: Colony formation assay, androgen-independent C4-2 and CWR22R cells. The note with it: 10 μM, 7 days. The class given is cell-based, human. Here is the method:
(§1) Cell Colony Assay: Cells were plated in 24-well plates at a density allowing 6-7 days of exponential growth before confluency. Medium and compound was replaced every 48 hours to minimize the effect of potential compound instability. After 7 days of incubation in the presence of compound, cells were fixed and stained with methylene blue, followed by extraction of the stain with 1% SDS and spectrophotometry at 650 nm. Each assay was run in triplicate and the difference between control and compound-treated wells was determined using Student's t-test. This Example provides a description of the effect of the selected compounds on the growth of PCa cells. To test the toxicity of the identified AR inhibitors towards cells of different origins, we performed colony formation assays using a single dose of each compound (10 μM) on several PCa (LNCaP, C4-2, CW[…] and DU145) and two non-PCa (HT1080 and HeLa) cell lines (FIG. 2A). […] These compounds were not weaker inhibitors of AR transcriptional activity in CW[…] or C4-2 cells than compounds that inhibited growth of the cells.

For another data set, the system named is LNCaP cells. Briefly: Colony formation assay, LNCaP cells. The class given is cell-based, human. The note with it: 10 μM, 7 days. Here is the method:
as §1

The test system of data set [1] is AR-expressing PCa cell lines (LNCaP, C4-2, CWR22R). Briefly: Toxicity to AR-expressing PCa cell lines (colony formation / dose-dependent growth inhibition). The class given is cell-based, human. The note with it: for toxicity towards AR-expressing PCa cell lines: colony formation, 10 μM, three AR-expressing PCa cell lines; for degree of toxicity to PCa cells (killing vs reduced growth): dose-dependent toxicity, by day 7. Here is the method:
(§2) Cell Colony Assay: Cells were plated in 24-well plates at a density allowing 6-7 days of exponential growth before confluency. Medium and compound was replaced every 48 hours to minimize the effect of potential compound instability. After 7 days of incubation in the presence of compound, cells were fixed and stained with methylene blue, followed by extraction of the stain with 1% SDS and spectrophotometry at 650 nm. Each assay was run in triplicate and the difference between control and compound-treated wells was determined using Student's t-test.
Dose-dependent inhibition of cell growth: Cells were plated at 1×10^3 cells per well in 96-well plates. Compounds were added in a dose range from 1 to 20000 nM in two-fold increments. Each dose was tested in triplicate. Controls were 0.1% DMSO (no effect on cell viability) and 50 μM 9-aminoacridine (complete cell death). Cells were incubated for 6 days and then fixed and stained with methylene blue, followed by extraction of the stain with 1% SDS and spectrophotometry at 650 nm. The assay was run two times and, based on the results, the inhibitory concentration of compound suppressing cell growth by 50% as compared to DMSO (IC50) was calculated by the sigmoid approximation method using CalcuSyn software (Biosoft, Chembridge, UK). Confidence intervals were calculated for each sigmoid.
This Example provides a description of the effect of the selected compounds on the growth of PCa cells. To test the toxicity of the identified AR inhibitors towards cells of different origins, we performed colony formation assays using a single dose of each compound (10 μM) on several PCa (LNCaP, C4-2, CWR22R and DU145) and two non-PCa (HT1080 and HeLa) cell lines (FIG. 2A). […] These compounds were not weaker inhibitors of AR transcriptional activity in CWR22R or C4-2 cells than compounds that inhibited growth of the cells. […]

In data set [2] the test system is HT1080, HeLa and DU145 cells. Briefly: Colony formation assay, non-PCa and AR-negative PCa cells. The class given is cell-based, human. The note with it: 10 μM, 7 days. Here is the method: as §2
This Example provides a description of the effect of the selected compounds on the growth of PCa cells. To test the toxicity of the identified AR inhibitors towards cells of different origins, we performed colony formation assays using a single dose of each compound (10 μM) on several PCa (LNCaP, C4-2, CWR22R and DU145) and two non-PCa (HT1080 and HeLa) cell lines (FIG. 2A). […] These compounds were not weaker inhibitors of AR transcriptional activity in CWR22R or C4-2 cells than compounds that inhibited growth of the cells.

In a further data set the test system is C4-2 tumors. In words: C4-2 xenograft model in nude mice. Type of data set: in vivo, mouse. The note with it: 6 daily i.p. injections, 100xIC50 dose. The text has this: FIGS. 6A and 6B provide data showing anti-tumor activity of the selected hits in mouse models of androgen-independent PCa. FIG. 6A provides a graphical representation of data obtained from i.p. injection of the listed compounds or DMSO vehicle into nude mice carrying subcutaneous (s.c.) C4-2 tumors. Six daily injections were given starting when tumors were around 100 mm3 in size. There were 4-5 mice per group with two tumors per mouse. Asterisks (*) and number signs (#) are placed under the means of measurement in the c6 and c11 groups respectively which are statistically different from the control group by ANOVA test (>99%) B. C52 (9 mg/kg or 18 mg/kg) or DMSO vehicle was injected into the tail vein of nude mice carrying s.c. CWR22R tumors. Five daily injections were given starting when tumors were around 40 mm3 in size. There were 10 mice per group with one tumor per mouse. Asterisks (*) are placed under the means of measurement which are statistically different from the control group by ANOVA test (>99%). Error bars in both FIGS. 6A and B—standard deviation between the size of tumors within a given treatment group.
Testing of the anti-tumor effect of compounds in mice was done according to an IACUC-approved protocol in 8 week old male athymic nude mice from Harlan (Indianapolis, Ind.). For the C4-2 xenograft model, 10^6 C4-2 cells were injected subcutaneously (s.c.) in 2 sites of each mouse in 50% matrigel (BD Biosciences, Bradford, Mass.) in PBS. Upon development of visible tumors, they were measured using digital caliper. Tumor volume was calculated according to the formula: […]. Mice were injected with compounds i.p. daily for 6 days starting on the day when at least one tumor per mouse reached 100 mm^3 in size. Five mice per group were used. For the CWR22R xenograft model, CWR22R cells were inoculated (10^5 cells per inoculum) in 50% matrigel, one site per mouse. Treatment was started when the tumor grew to a size of at least 25 mm^3. Compounds were diluted in captisol (CyDex, Lenexa, Kans.) and delivered intravenously (to reduce “first pass” liver effect) once a day for 5 days. Ten mice per group were used. Mice were monitored daily and tumors were measured every other day. Mice were euthanized according to institutional regulations when the size of tumor reached 1000 mm^3. Comparison of the tumor growth in control and treated mice was done using ANOVA test.
We evaluated the potential anti-tumor effect of the hits using C4-2 and CWR22R xenograft models of androgen-independent PCa in nude mice. Groups of C4-2 tumor-bearing mice (4-5 mice per group, each with two tumors) were given 6 daily i.p. injections of compound (100×IC50 dose) or DMSO vehicle.

The subject of another data set is CWR22R cells. In words: Cell cycle distribution by propidium iodide staining. The note with it: for changes in cell cycle distribution: increase in G1, decrease in S phase; for cells with sub-G1 DNA content (apoptotic): propidium iodide FACS. The class given is cell-based, human. Here is the method:
Analysis of cell cycle distribution was based on staining of DNA content by propidium iodide. 10^5 cells were removed from culture dishes using trypsin, washed with PBS and resuspended in 300 μl 3% BSA in PBS, followed by addition of […] 70% ethanol. Cells were kept at −20° C. for several hours and then stained with 10 μg/ml propidium iodide in the presence of 30 μg/ml RNase A for 2 hrs at 37° C. DNA content was assessed using a FACS Calibur instrument and CellQuest software (Becton Dickinson, Franklin Lakes, N.J.).
To test this possibility, we assessed the cell cycle distribution of CWR22R cells treated with both categories of compounds. […] Therefore, different subsets of compounds inhibiting AR-dependent transcription in androgen-independent PCa cells cause either growth arrest or apoptosis in these cells. Whether a compound causes growth arrest or apoptosis is not determined by the potency of the compound as an inhibitor of AR-dependent transcription (i.e., FIG. 2B).

For the next data set, the system named is NIH Swiss mice. Briefly: Compound safety in mice, dose escalation. The note with it: three i.p. injections 20x, 50x, 100xIC50 in 3 day intervals. The class given is in vivo. Here is the method:
Testing of compound safety in mice was done according to an IACUC-approved protocol. The experiment was performed using outbred 8 week old NIH Swiss male mice from Harlan (Indianapolis, Ind.), 4 mice per group. IC50 concentrations were used to calculate in vivo doses based on mouse weight (IC50 in vivo dose equivalent in mg/kg=IC50 in mg/ml×1000, based on the assumption that 1 g of mouse tissues have an approximate volume of 1 ml). The compounds were injected intraperitoneally (i.p.) in 25% DMSO-75% PBS starting from 20×IC50 equivalent of in vitro cytotoxic dose of compounds. […]. The control group of mice received 3 injections of 25% DMSO-75% PBS in intervals of three days. Blood biochemistry analysis was performed by BioReliance (Rockville, Md.).
Five hit compounds, representing both the ARTIS and ARTIK categories (c6, c11, c17, c52 and c85), were selected for in vivo tests based on all of the previous assays. Compound c5 was rejected due to very low microsomal stability (<5% after 1 hour incubation with rat microsomes). The toxicity of the compounds was evaluated in a dose escalation assay in which male NIH Swiss mice (n=4) received three sequential intraperitoneal (i.p.) injections of each compound delivered in 3 day intervals. […]. On the day after the last injection, half of the mice in each group were sacrificed for gross pathology examination and collection of blood for serum biochemistry assays, which include total protein, glucose, bilirubin, and creatinine levels, activity of liver enzymes, and ion concentrations. The remaining mice were sacrificed and evaluated similarly 7 days after the last compound injection. […] A minor decrease in serum glucose concentration (70-80% of control) was observed on the day after the last compound injection in almost all mice, but glucose levels were normal a week later (data not shown). Low serum glucose level might reflect of a weak transient GR-inhibitory effect of the selected compounds.

“Also recorded” adds a separate entry of the source.

With `CC1=C(C(=O)OCCc2ccccc2)C(c2ccc(Cl)cc2)C2=C(CCCC2=O)N1` (centres unmarked) [c8], in the data set on C4-2 and CWR22R cells, the “growth of androgen-independent C4-2 and CWR22R cells” value is listed as “do not affect growth”. Further, in the data set with LNCaP cells, the “growth of androgen-sensitive LNCaP cells” value is “suppressed growth of LNCaP cells; also recorded: suppress growth of androgen-sensitive LNCaP cells”.

With `C=CCc1ccccc1OCCOc1ccc(C=Nn2cnnc2)cc1OC` [c18], in data set [1], the “toxicity towards AR-expressing PCa cell lines” value is listed as “different degrees of toxicity; also recorded: suppress growth of all” and the “degree of toxicity to PCa cells (killing vs reduced growth)” value (“degree … (killing vs reduced growth)” below) is on record as “reduced growth as compared to untreated control cells, but not obvious cell death”. For the same molecule, the “growth of / toxicity towards non-PCa cells or AR-negative PCa cells (DU145)” value in data set [2] is listed as “no toxicity”.

`CC(C)(C)c1ccc(C(=O)Nc2ccc(NC(=O)c3ccc4c(c3)OCCO4)cc2)cc1` [c11]: in data set [1], the “toxicity towards AR-expressing PCa cell lines” value is “different degrees of toxicity; also recorded: suppress growth of all” and the “degree … (killing vs reduced growth)” value was “reduced growth as compared to untreated control cells, but not obvious cell death”. The C4-2 tumor growth entry with C4-2 tumors is “clear suppression of C4-2 tumor growth”. In the data set with CWR22R cells, the “changes in cell cycle distribution” value is on record as “cell cycle arrest” and the “cells with sub-G1 DNA content (apoptotic)” value is “did not result in appearance of cells with sub-G1 DNA content”. Moreover, the “toxicity in mice (visual inspection, gross pathology)” value in the data set with NIH Swiss mice was “generally non-toxic”. For the same molecule, in data set [2], the “growth of / toxicity towards non-PCa cells or AR-negative PCa cells (DU145)” value was “no toxicity”.

For the molecule `FC(F)(F)c1ccccc1CN1CCN(Cc2c[nH]c3ccccc23)CC1` [c66], in data set [2], the “growth of / toxicity towards non-PCa cells or AR-negative PCa cells (DU145)” value is given as “exception”.

For the molecule `c1ccc(CNc2ccc(-c3nc4ccccc4o3)cc2)cc1` [c55], in the data set on C4-2 and CWR22R cells, the “growth of androgen-independent C4-2 and CWR22R cells” value was “do not affect growth”. In addition, the “growth of androgen-sensitive LNCaP cells” value in the data set with LNCaP cells was “suppressed growth of LNCaP cells; also recorded: suppress growth of androgen-sensitive LNCaP cells”.

Take `O=C(NC(=S)Nc1nc(-c2ccccc2)cs1)c1ccc(-c2ccccc2)cc1` [c17]: in data set [1], the “toxicity towards AR-expressing PCa cell lines” value is on record as “different degrees of toxicity; also recorded: suppress growth of all” and the “degree … (killing vs reduced growth)” value is “reduced growth as compared to untreated control cells, but not obvious cell death”. Moreover, the C4-2 tumor growth entry with C4-2 tumors was “did not”. In addition, the “growth of / toxicity towards non-PCa cells or AR-negative PCa cells (DU145)” value in data set [2] is “no toxicity”.

With `Cc1ccc(OCC(=O)Nc2ccc(Cl)c([N+](=O)[O-])c2)c(C)c1` [c61], the “growth of androgen-independent C4-2 and CWR22R cells” value with C4-2 and CWR22R cells is recorded as “do not affect growth”. In addition, the “growth of androgen-sensitive LNCaP cells” value in the data set on LNCaP cells is “suppressed growth of LNCaP cells; also recorded: suppress growth of androgen-sensitive LNCaP cells”.

Turning to `C=CCc1ccc(OCCCOc2ccccc2C(C)=O)c(OC)c1` [c47], the “growth of androgen-independent C4-2 and CWR22R cells” value with C4-2 and CWR22R cells is given as “do not affect growth”. Further, the “growth of androgen-sensitive LNCaP cells” value with LNCaP cells is recorded as “suppressed growth of LNCaP cells; also recorded: suppress growth of androgen-sensitive LNCaP cells”.

With `Clc1ccccc1C1Nc2cccc3cccc(c23)N1` [c6], in data set [1], the “toxicity towards AR-expressing PCa cell lines” value is “different degrees of toxicity; also recorded: suppress growth of all” and the “degree … (killing vs reduced growth)” value is recorded as “reduced growth as compared to untreated control cells, but not obvious cell death”. Further, the C4-2 tumor growth entry in the data set on C4-2 tumors is “clear suppression of C4-2 tumor growth”. In the data set with CWR22R cells, the “changes in cell cycle distribution” value is “cell cycle arrest” and the “cells with sub-G1 DNA content (apoptotic)” value is recorded as “did not result in appearance of cells with sub-G1 DNA content”. Moreover, the “toxicity in mice (visual inspection, gross pathology)” value in the data set with NIH Swiss mice is recorded as “generally non-toxic”. Moreover, in data set [2], the “growth of / toxicity towards non-PCa cells or AR-negative PCa cells (DU145)” value is “no toxicity”.

Turning to `CC(C)c1ccc2oc(-c3cccc(NC(=S)NC(=O)c4ccccc4Br)c3)nc2c1` [c16], in the data set with C4-2 and CWR22R cells, the “growth of androgen-independent C4-2 and CWR22R cells” value is “do not affect growth”. Also, the “growth of androgen-sensitive LNCaP cells” value with LNCaP cells is listed as “suppressed growth of LNCaP cells; also recorded: suppress growth of androgen-sensitive LNCaP cells”.
